Results as given in patent US8466188B2, “Use of spiro-oxindole compounds as therapeutic agents” (Xenon Pharmaceuticals Inc., priority 2006, dated 2013).

| melting point [°C] | SMILES |
| --- | --- |
| 111 to 113 | O=C1N(CCCC2CC2)c2ccccc2C12COc1cc3c(cc12)OCO3 (centres unmarked) [Example 10.32, 1′-(3-cyclopropylpropyl)spiro[furo[2,3-f][1,3]benzodioxole-7,3′-indol]-2′(1′H)-one] |
| 177 to 179 | CS(=O)(=O)c1ccc(CN2C(=O)C3(COc4cc5c(cc43)OCO5)c3ccccc32)o1 (centres unmarked) [Example 10.81, 1′-{[5-(methylsulfonyl)-2-furyl]methyl}spiro[furo[2,3-f][1,3]benzodioxole-7,3′-indol]-2′(1′H)-one] |
| > 200 | O=C1N(Cc2ccccn2)c2cccc(-c3cccnc3)c2C12COc1cc3c(cc12)CCO3 (centres unmarked) [Example 4.11, 4′-pyridin-3-yl-1′-(pyridin-2-ylmethyl)-5,6-dihydrospiro[benzo[1,2-b:5,4-b′]difuran-3,3′-indol]-2′(1′H)-one] |
| 70 to 75 | O=C(CN1C(=O)C2(COc3cc(Cl)ccc32)c2ccccc21)Nc1ccccc1F (centres unmarked) [Example 3.8, 2-(6-chloro-2′-oxospiro[1-benzofuran-3,3′-indol]-1′(2′H)-yl)-N-(2-fluorophenyl)acetamide] |
| 229 to 230 | O=C(CN1C(=O)C2(COc3cc4c(cc32)CCO4)c2c(-c3cncnc3)cccc21)Nc1ccccc1F (centres unmarked) [Example 4.20, N-(2-fluorophenyl)-2-(2′-oxo-4′-pyrimidin-5-yl-5,6-dihydrospiro[benzo[1,2-b:5,4-b′]difuran-3,3′-indol]-1′(2′H)-yl)acetamide] |
| 167 to 169 | N#Cc1ccc(CN2C(=O)C3(COc4cc5c(cc43)OCO5)c3ccccc32)o1 (centres unmarked) [Example 10.80, 5-[(2′-oxospiro[furo[2,3-f][1,3]benzodioxole-7,3′-indol]-1′(2′H)-yl)methyl]-2-furonitrile] |
| 130 to 135 | O=C1N(Cc2ccccc2OC(F)(F)F)c2ccccc2C12COc1cc3c(cc12)OCO3 (centres unmarked) [Example 10.36, 1′[2-(trifluoromethoxy)benzyl]spiro[furo[2,3-f][1,3]benzodioxole-7,3′-indol]-2′(1′H)-one] |
| 146 to 150 | CN(C)c1ccc(CN2C(=O)C3(COc4cc5c(cc43)OCO5)c3ccccc32)cn1.Cl (centres unmarked) |
| 100 to 103 | O=C(CN1C(=O)C2(COc3ccc(Br)cc32)c2ccccc21)Nc1ccccc1F (centres unmarked) [Example 3.10, 2-(5-bromo-2′-oxospiro[1-benzofuran-3,3′-indol]-1′(2′H)-yl)-N-(2-fluorophenyl)acetamide] |
| 208 to 210 | O=C1Nc2ccccc2C12COc1cc3c(cc12)CCO3 (centres unmarked) [Example 1.51, 5,6-dihydrospiro[benzo[1,2-b:5,4-b′]difuran-3,3′-indol]-2′(1′H)-one] |
| 95 to 97 | O=C1N(CC2CCN(c3ccccn3)CC2)c2ccccc2C12COc1cc3c(cc12)OCO3 (centres unmarked) [Example 10.86, 1′-[(1-pyridin-2-ylpiperidin-4-yl)methyl]spiro[furo[2,3-f][1,3]benzodioxole-7,3′-indol]-2′(1′H)-one] |
| 110 to 112 | O=C1N(Cc2ccco2)c2ccccc2C12COc1cc3c(cc12)OCO3 (centres unmarked) [Example 10.52, 1′-(2-furylmethyl)spiro[furo[2,3-f][1,3]benzodioxole-7,3′-indol]-2′(1′H)-one] |
| 182 to 184 | O=C1N(Cc2ccc(C(F)(F)F)o2)c2cccc(Br)c2C12COc1cc3c(cc12)CCO3 (centres unmarked) [Example 10.48, 4′-bromo-1′-{[5-(trifluoromethyl)-2-furyl]methyl}-5,6-dihydrospiro[benzo[1,2-b:5,4-b′]difuran-3,3′-indol]-2′(1′H)-one] |
| 142 to 144 | O=C1N(Cc2ccc(Cl)s2)c2ccc(F)cc2C12COc1cc3c(cc12)OCO3 (centres unmarked) [Example 10.61, 1′-[(5-chloro-2-thienyl)methyl]-5′-fluorospiro[furo[2,3-f][1,3]benzodioxole-7,3′-indol]-2′(1′H)-one] |
| > 200 | O=C1N(Cc2ccccn2)c2cccc(Br)c2C12COc1cc3c(cc12)CCO3 (centres unmarked) [Example 1.25, 4′-bromo-1′-(pyridin-2-ylmethyl)-5,6-dihydrospiro[benzo[1,2-b:5,4-b′]difuran-3,3′-indol]-2′(1′H)-one] |
| 139 to 141 | O=C1N(Cc2ccc(C(F)(F)F)o2)c2ccc(F)cc2C12COc1cc3c(cc12)OCO3 (centres unmarked) [Example 1.26, 5′-fluoro-1′-{[5-(trifluoromethyl)-2-furyl]methyl}spiro[furo[2,3-f][1,3]benzodioxole-7,3′-indol]-2′(1′H)-one] |
| 106 to 108 | CCCCCN1C(=O)C2(COc3cc4c(cc32)OCO4)c2c(Cl)ccc(Cl)c21 (centres unmarked) [Example 1.22, 4′,7′-dichloro-1′-pentylspiro[furo[2,3-f][1,3]benzodioxole-7,3′-indol]-2′(1′H)-one] |
| 185 to 187 | O=C1Nc2cccc(-c3cncnc3)c2C12COc1cc3c(cc12)OCO3 (centres unmarked) [Example 4.8, 4′-pyrimidin-5-ylspiro[furo[2,3-f][1,3]benzodioxole-7,3′-indol]-2′(1′H)-one] |
| 142 to 144 | O=C1N(CC2CCOCC2)c2ccccc2C12COc1cc3c(cc12)OCO3 (centres unmarked) [Example 10.35, 1′-(tetrahydro-2H-pyran-4-ylmethyl)spiro[furo[2,3-f][1,3]benzodioxole-7,3′-indol]-2′(1′H)-one] |
| 99 to 101 | O=C1N(Cc2ccc(OC(F)(F)F)cc2)c2ccccc2C12COc1cc3c(cc12)OCO3 (centres unmarked) [Example 10.38, 1′[4-(trifluoromethoxy)benzyl]spiro[furo[2,3-f][1,3]benzodioxole-7,3′-indol]-2′(1′H)-one] |
| 96 to 98 | CC(C)(C)OC(=O)N1CCC(CN2C(=O)C3(COc4cc5c(cc43)CCO5)c3ccccc32)CC1 (centres unmarked) [Example 10.43, tert-butyl 4-[(2′-oxo-5,6-dihydrospiro[benzo[1,2-b:5,4-b′]difuran-3,3′-indol]-1′(2′H)-yl)methyl]piperidine 1-carboxylate] |
| 269 to 271 | Cc1ccc2c(c1)C1(COc3cc4c(cc31)OCO4)C(=O)N2 (centres unmarked) [Example 1.28, 5′-methylspiro[furo[2,3-f][1,3]benzodioxole-7,3′-indol]-2′(1′H)-one] |
| 178 to 180 | COc1cc(C(F)(F)F)sc1CN1C(=O)C2(COc3cc4c(cc32)OCO4)c2ccccc21 (centres unmarked) [Example 10.74, 1′-{[3-methoxy-5-(trifluoromethyl)-2-thienyl]methyl}spiro[furo[2,3-f][1,3]benzodioxole-7,3′-indol]-2′(1′H)-one] |
| 127 to 130 | O=C1N(Cc2ccc(C(F)(F)F)s2)c2ccccc2C12COc1cc3c(cc12)OCO3 (centres unmarked) [Example 10.73, 1′-{[5-(trifluoromethyl)-2-thienyl]methyl}spiro[furo[2,3-f][1,3]benzodioxole-7,3′-indol]-2′(1′H)-one] |
| 48 to 50 | CCCCCN1C(=O)C2(COc3cc(F)c(F)cc32)c2ccccc21 (centres unmarked) [Example 1.12, 5,6-difluoro-1′-pentylspiro[1-benzofuran-3,3′-indol]-2′(1′H)-one] |
| 167 to 169 | O=C1N(Cc2ccc(C(F)(F)F)o2)c2cccc(-c3ccoc3)c2C12COc1cc3c(cc12)CCO3 (centres unmarked) [Example 4.12, 4′-(3-furyl)-1′-{[5-(trifluoromethyl)-2-furyl]methyl}-5,6-dihydrospiro[benzo[1,2-b:5,4-b′]difuran-3,3′-indol]-2′(1′H)-one] |
